{"source": "patent US6060481A", "about": "“Method for improving insulin sensitivity using an adenosine receptor antagonist” (priority 1999, dated 2000)", "key": {"[1]": {"test": "Basal postabsorptive glucose kinetics", "type": "in vivo, Zucker rats", "settings": "for Glucose Concentration / Glucose MCR / Glucose Ra: basal postabsorptive, treated 1 wk", "protocol": "In this example, 6-8 week old lean and obese female animals were used. Each group received either vehicle or vehicle plus 1,3-dipropyl-8-(p-acrylic)phenylxanthine (BWA1433) (12 mg/kg every 12 h) for one week prior to the start of the experimental protocol, as described by Xu, et al., Am. […] The vehicle in this case was 10 mg/ml methyl cellulose in H2 O. The final dose of BWA1433 or vehicle was administered approximately 1 h prior to the start of the experimental protocol.\nOn the day prior to the start of the experimental protocol, animals were anesthetized with an intramuscular injection of ketamine and xylazine (90 and 9 mg/kg body weight, respectively), and sterile surgery was performed to implant catheters in the carotid artery and jugular vein according to the methods taught by Lang et al., Endocrinology, 130: 43-52 (1992). After surgery, animals were housed in individual cages and provided water ad libitum. Animals were fasted overnight.\nThe following morning, a primed, constant intravenous infusion of [3-^3 H]glucose (high-performance liquid chromatography purified; DuPont-New England Nuclear, Boston, Mass.) was initiated to determine basal glucose kinetics. A 7-μCi bolus injection of labeled glucose was administered followed by a continuous infusion at a rate of 0.083 μCi/min for the next 2 h. Arterial blood samples were collected at 100 and 120 min (0.3 ml each) after the start of the tracer infusion. Blood was collected in heparinized syringes, centrifuged, and the plasma glucose concentration and glucose specific activity were determined on each sample.\nRates of whole body glucose appearance (Ra) and disappearance (Rd) are calculated using the steady-state equations of Steele, Ann. […] The glucose metabolic clearance rate (MCR) is calculated by dividing the glucose Rd by the prevailing glucose concentration."}, "[2]": {"test_system": "protein tyrosine phosphatase", "test": "Protein tyrosine phosphatase assay of gastrocnemius fractions and insulin receptor preparations of treated rats", "type": "in vivo, Zucker rats", "protocol": "Approximately 100 mg frozen tissue were homogenized in 5 ml buffer containing 10 mM NaHCO3, (pH 7.4), 250 mM sucrose, 0.1 mg/ml aprotinin, 0.05 mg/ml leupeptin, 1 mM phenylmethysulfonyl fluoride (PMSF), and 5 mM NaN3 (CHB buffer) and then sonicated for 1 min on ice with three 20-sec bursts. The sonicate was centrifuged at 1,200 g for 10 min at 4° C. Three ml of CHB medium was added to the pellet which was then rehomogenized for 1 min and respun. The suspensions of the two pellets were combined, rehomogenized, and respun at 10,000 g for 10 minutes at 4° C. The 10,000 g pellet was discarded and the supernatant was transferred to a cold Ti75 ultracentrifuge tube and spun at 270,000 g for 90 minutes. The supernatant of the high speed centrifugation (cytosol) was used for PTPase assays. The 270,000 g pellet was resuspended in 0.500 ml buffer containing 250 mM sucrose, 20 mM HEPES (pH 7.4), 0.6 M KC1, and 1% Triton X-100. A 27 gauge syringe needle was used to completely solubilize the pellet. The supernatant was spun at 12,000 rpm for 20 min and the resulting supernatant, termed particulate fraction was then dialyzed overnight at 4° C. against 20 mM HEPES (pH 7.2) and 0.1% β-mercaptoethanol. Samples were stored at -70° C. until used for PTPase assays.\nEach tube contained 10 μl [^32 P]tyrosine-phosphorylated myelin basic protein (1×10^4 dpm; 2×10^3 dpm/pmol), 10 μl 5X PTP-ase buffer [250 mM HEPES (pH 7.0), 10 mM EDTA, 5 mM DTT], and 1-5 μg muscle fraction protein and water in a total volume of 40 μl. Consumption of substrate (phosphorylated myelin basic protein) was limited to 20%.\nOne unit of PTPase activity is defined as the amount of enzyme releasing 1 nmol phosphate/min from myelin basic protein.\n(§1) PTPase was measured in skeletal muscle cytosolic fractions, particulate fractions, and in partially purified insulin receptors. To assay PTPase activity in partially purified insulin receptors the WGA eluates were dialyzed overnight against 0.1% β-mercaptoethanol and 20 mM HEPES, pH 7.2, to eliminate phosphatase inhibitors."}, "[3]": {"test_system": "insulin receptor kinase", "test": "Insulin receptor kinase assay of partially purified receptors from gastrocnemius of treated rats", "type": "in vivo, Zucker rats", "method": "BWA1433 was administered as previously described, in a suspension of 7 mg/ml methyl cellulose containing 10 mg/ml BWA1433. BWA1433 was supplied as a free acid from Glaxo-Wellcome but was adjusted to pH 8.0 with NaOH prior to use. In this way, treated animals were given 12 mg/kg BWA1433 every 12 hours (±1 hour) for one week.\nInsulin receptors were prepared from 100 mg frozen powdered skeletal muscle using lectin affinity chromatography, as taught by Caro, J. Clin. Invest., 79:1330-1337 (1987). Supernatants from detergent (Triton X-100) solubilized muscle were cycled over 0.3 ml bed volume wheat germ agglutinin agarose (WGA) columns, after which the columns were washed thoroughly overnight. The receptors were eluted in one ml of buffer containing 25 mM N-[2-hydroxyethyl]piperazine-N'-[2-ethanesulfonic acid] (HEPES) (pH 7.6), 55 mM NaCl, 11.25 mM KCI, 0.5 mM CaCl2, 0.5 mM MgCl2, 0.5 mM Na3 VO4, 5 mM NaF, 10% glycerol, 0.05% Triton X-100, and 300 mM-acetyl-D-glucosamine. WGA column eluates were aliquoted to avoid multiple freezing/thawing and were stored at -70° C. until use. Columns were thoroughly washed (50-100 bed volumes wash buffer) and reused. Receptors were quantitated by assaying protein and immunoblotting to specifically assess insulin receptor protein.\nInsulin receptor kinase activity was determined using a modification of previously published techniques by Debant, et al., Am. […] Papers were blotted, oven-dried, and radioactivity determined by scintillation counting using a Beckman Model LS3801 scintillation counter. Activity was calculated in mUnits receptor kinase/mg of WGA eluate protein. […]\nInsulin receptor kinase activity was measured 1) in the basal state in non-insulin-injected animals, 2) in insulin-injected animals without added insulin, and 3) in receptors isolated from insulin injected animals but stimulated in vitro with 1 μM exogenous insulin. […] Intravenous insulin-injection increased the observed activity of the insulin receptor kinase 7- to 12-fold when measured in the absence of insulin added in vitro (FIG. 4A). […]"}, "[4]": {"test_system": "protein tyrosine phosphatase", "test": "In vitro inclusion of compound in WGA eluates, protein tyrosine phosphatase assay", "type": "biochemical, Zucker rats", "settings": "10 μM in vitro in WGA eluates from obese controls", "protocol": "Assays were performed at 25° C. using a slight modification of a protocol described by Ahmad and Goldstein, Am. […] Each tube contained 10 μl [^32 P]tyrosine-phosphorylated myelin basic protein (1×10^4 dpm; 2×10^3 dpm/pmol), 10 μl 5X PTP-ase buffer [250 mM HEPES (pH 7.0), 10 mM EDTA, 5 mM DTT], and 1-5 μg muscle fraction protein and water in a total volume of 40 μl. Consumption of substrate (phosphorylated myelin basic protein) was limited to 20%. […] The assay differs from that of Ahmed and Goldstein in that the amount of phosphorylated substrate (myelin basic protein) was lower and its specific activity higher, similar to the skeletal muscle PTPase assay described by Tanowitz, et al., Brain Res., 712:299-306 (1996).\nas §1"}}, "data": [{"smiles": "CCCn1c(=O)c2[nH]c(-c3ccc(C=CC(=O)O)cc3)nc2n(CCC)c1=O", "note": "[BWA1433, 1,3-dipropyl-8-(p-acrylic)phenylxanthine]", "values": [{"measurement": "Alterations in any parameter of glucose metabolism", "setting": "[1]; basal conditions, either group (lean, obese)", "result": "did not produce detectable alterations"}, {"measurement": "Glucose Concentration", "setting": "[1]; lean rats", "result": "5.1 ± 0.2", "unit": "mM"}, {"measurement": "Glucose MCR", "setting": "[1]; lean rats", "result": "7.1 ± 0.8", "unit": "ml · min^-1 .multidot"}, {"measurement": "Glucose Ra", "setting": "[1]; lean rats", "result": "36.8 ± 2.9", "unit": "μmol^-1 · min .multid"}, {"measurement": "Glucose Concentration", "setting": "[1]; obese rats", "result": "4.5 ± 0.2", "unit": "mM"}, {"measurement": "Glucose MCR", "setting": "[1]; obese rats", "result": "8.3 ± 0.8", "unit": "ml · min^-1 .multidot"}, {"measurement": "Glucose Ra", "setting": "[1]; obese rats", "result": "37.5 ± 4.8", "unit": "μmol^-1 · min .multid"}, {"measurement": "Phosphatase activity in cytosolic fractions of gastrocnemius", "setting": "[2]; between groups (lean, obese, ± treatment)", "result": "No differences"}, {"measurement": "PTPase activity in particulate fraction of gastrocnemius", "setting": "[2]; obese Zucker rats", "result": "reduction"}, {"measurement": "Reduction of phosphatase activity in partially-purified insulin receptor preparations compared to untreated controls", "setting": "[2]; obese rats", "result": 27, "unit": "%"}, {"measurement": "Insulin receptor kinase activity", "setting": "[3]; lean rats, insulin in vivo plus 1 μM insulin in vitro", "result": "no significant influence"}, {"measurement": "Insulin receptor kinase activity", "setting": "[3]; obese animals, insulin injected in vivo, no insulin added in vitro", "result": "small but significant increase"}, {"measurement": "Insulin receptor kinase activity", "setting": "[3]; obese rats, insulin in vivo plus 1 μM insulin in vitro", "result": "increased"}, {"measurement": "Effect on protein tyrosine phosphatase activity", "setting": "[4]", "result": "no effect"}]}]}
